From US6911474B2, “Methods, compounds, and compositions for reducing body fat and modulating fatty acid metabolism” (The Regents of the University of California, priority 2001, dated 2005)
Ends that are not written are not given here.

Columns and labels:
[1] = Acute food intake in 24-h food-deprived rats after i.p. administration; assay type: in vivo, rat; settings: 24-h food-deprived rats, 15 min before food presentation, FIG. 4a,b
Description: Feeding experiments. Acute experiments. Food intake was measured in 24-h food-deprived rats (Navarro et al., J. Neurochem., 67:1982-1991 (1996)), administering drugs 15 min before food presentation. Subchronic experiments. Ad libitum fed rats received vehicle injections for three days. On day four, the animals were divided in two equal groups and gave them daily injections of vehicle or OEA (5 mg per kg at 1900 h) for 7 consecutive days, while measuring body weight, food intake and water intake.
The effects of systemically administered OEA on food intake in rats can be assessed using a 24 h fast. […] To define the selectivity of this response, various OEA analogs were evaluated for their ability to produce hypophagia.

Soleus muscle = assay: [14C]oleate oxidation to CO2 in soleus muscle; assay type: cell-based, rat; settings: soleus muscle, structure-activity relationship; FIG. 8
[2] = Food intake in capsaicin-treated rats (sensory fibers destroyed); assay type: in vivo, rat; settings: OEA 10 mg per kg, i.p., FIG. 6a,c
Text: Chemicals. FAEs and [^2H4] FAEs were synthesized in the laboratory (Giuffrida et al., “Lipid Second Messengers” (ed. Laychock, S. G. & Rubin, R. P.) 113-133 (CRC Press LLC, Boca Raton, Fla., 1998)); 1,2-dioleyl-sn-glycero-phosphoethanolamine-N-oleyl was purchased from Avanti Polar Lipids (Alabaster, Ala.); SR141716A was provided by RBI (Natick, Mass.) as part of the Chemical Synthesis Program of the NIMH (N01MH30003); SR144528 was a generous gift of Sanofi Recherche; all other drugs were from Tocris (Ballwin, Mo.) or Sigma (Saint Louis, Mo.). FAE were dissolved in dimethylsulphoxide (DMSO) and administered in 70% DMSO in sterile saline (acute treatments) or 5% Tween 80/5% propylenglycol in sterile saline (subchronic treatments) (1 ml per kg, i.p.). Capsaicin was administered in 10% Tween 80/10% ethanol/80% saline; SR141716A, SR144528, CCK-8 and CP-93129 in 5% Tween 80/5% propylenglycol/90% saline (1 ml per kg, i.p.).
These findings support the hypothesis that OEA causes hypophagia by acting at a peripheral site, and that sensory fibers are required for this effect.

[3] = Conditioned taste aversion; assay type: in vivo, rat; settings: OEA 20 mg per kg, i.p.; lithium chloride 0.4 M, 7.5 ml per kg; FIG. 4c
Description: Conditioned taste aversion. Rats were water-deprived for 24 h and then accustomed to drink from a graded bottle during a 30-min test period for four days. On day five, water was substituted with a 0.1% saccharin solution and, 30 min later, the animals received injections of vehicle, OEA (20 mg per kg) or lithium chloride (0.4 M, 7.5 ml per kg). During the following two days, water consumption was recorded over 30-min test periods. The animals were then presented with water or saccharin, and drinking measured.

## CCCCC/C=C\C/C=C\C/C=C\C/C=C\CCCC(=O)NCCO [Anandamide, arachidonylethanolamide, reference compound]
[1]
  suppression of food intake (hypophagia): no effect
Soleus muscle
  mimicking of the effect of OEA on skeletal muscle fatty acid oxidation: not

## O=c1ccc2[nH]cc(C3=CCNCC3)c2[nH]1 [CP-93129]
[2]
  food intake response of capsaicin-treated rats: responded normally

## CCCCCCCCCCCCCCCC(=O)NCCO [Palmitylethanolamide, palmitylethanolamide]
[1]
  suppression of food intake (hypophagia): active but significantly less potent than OEA
Soleus muscle
  mimicking of the effect of OEA on skeletal muscle fatty acid oxidation: only partially

## [Cl-].[Li+] [lithium chloride]
[3]
  conditioned taste aversion: readily provoked

## CCCCCCCC/C=C\CCCCCCCC(=O)O [oleic acid, reference compound]
[1]
  suppression of food intake (hypophagia): no effect
Soleus muscle
  mimicking of the effect of OEA on skeletal muscle fatty acid oxidation: not

## cholecystokinin-8 (DYMGWMDF; ends and bridges not checked; UniProt P06307 96-103, looked up) [CCK-8, peripherally administered cholecystokinin-8]
[2]
  food intake response of capsaicin-treated rats: failed to respond
